Test results reported in patent US20150182431A1, “Compositions and Methods for Treatment of Hair with Reduced Hair Damage” (SYTHEON LTD, priority 2013, published 2015).

Details: for Fluorescence decay of fluorescein (FL), in words: 200 μM each, CuCl2 230 μM, CaCl2 2.3 mM
Procedure: The study was conducted in accordance with the methodology disclosed in “Novel Fluorometric Assay for Hydroxyl Radical Prevention Capacity Using Fluorescein as the Probe”, B Ou, M Hampsch-Woodill, J Flanagan, EK Deemer, R Prior, D Huang, J. Agric, Food Chem: 50(10); 2772-2777, 2002.
The Fenton reaction was initiated with the mixture of Cu^2+, CaCl2 and hydrogen peroxide at alkaline condition. Hydroxyl radicals were generated by the Fenton reagent mixture, oxidative damage was monitored by fluorescein (FL), a fluorescence probe sensitive to hydroxyl radicals. The loss of fluorescence intensity was an index of oxidation. Thus, the slower the fluorescence decay, the stronger the chelation for Cu^2+.

O=C(O)CC(NCCNC(CC(=O)O)C(=O)O)C(=O)O (stereo not shown) [EDDS, Ethylenediamine-N,N′-disuccinic acid, reference compound]
Chelating ability for copper, in words: not an effective chelating agent for copper
Fluorescence decay of fluorescein (FL), in words: barely noted

COc1cc(C=C(C(C)=O)C(C)=O)cc(OC)c1OC [Compd. 1E, 3-(3,4,5-trimethoxybenzylidene) 2,4-pentanedione]
Chelating ability for copper, in words: excellent chelating ability for copper
Fluorescence decay of fluorescein (FL), in words: barely noted
Chelation of Cu^2+ preventing the Fenton reaction, in words (equimolar amounts (230 μM) of compound and Cu^2+): almost completely chelated
Attraction for calcium, in words (excess Ca^2+): little attraction for calcium

O=C(O)CN(CCN(CC(=O)O)CC(=O)O)CC(=O)O [EDTA, Ethylenediamine tetraacetic acid, reference compound]
Fluorescence decay of fluorescein (FL), in words: barely noted
